# Laboratory results published in patent US11464733B2, “Enema for rectal application” (Dr. Falk Pharma GmbH, priority 2016, dated 2022).
# Legend:
# [1] = tested on: patients with active ulcerative colitis; experiment: Same trial: safety, adverse events; type: in vivo, human
# Procedure: (§1) Superiority of the budesonide compared with placebo for mucosal healing as the primary endpoint are investigated for patients with active ulcerative colitis when budesonide 2 mg is rectally administered twice a day for 6 weeks by a double-blind comparative study with placebo as a control, and the safety thereof was investigated.
# (§2) Furthermore, the efficacy and safety of administering were investigated, to patients with inflammatory bowel disease who have been administered 1.5 to 2.5 mg of budesonide twice a day for 6 weeks and shown signs of healing but no mucous membrane healing, 1.5 to 2.5 mg of budesonide twice a day for an additional 6 weeks (for a total of 12 weeks) (clinical trial number: Japic CTI—142704).
# (§3) The test drug or control drug is rectally administered twice a day (once in the morning and once in the evening), after defecation, if possible. The number of injections per dose is one, the administration period is 6 weeks, if no mucous membrane healing occurred (an endoscope view score of 0 points), an administration period of 12 weeks can be used, and the drug is administered until the evening before the evaluation. The dose of budesonide in each group is 4 mg/day for the twice a day group, and 0 mg/day for the placebo group. The subjects with a 12-week administration period included 20 subjects in the budesonide administered group, and 18 subjects in the placebo group.
# [2] = tested on: acidophilic leucocyte; experiment: Same trial: hematology checks, leukocyte fractionation; type: in vivo, human
# [3] = tested on: serous cortisol; experiment: Same trial: blood biochemistry check, serous cortisol density; type: in vivo, human
# [4] = tested on: patients with active ulcerative colitis; experiment: Placebo-controlled double-blind trial: mucosal endoscopy, MMDAI endoscopic finding score; type: in vivo, human; details: for Number of subjects with MMDAI endoscopic finding score 0 / Number of subjects with MMDAI endoscopic finding score 1 / Number of subjects with MMDAI endoscopic finding score 2 / Number of subjects with MMDAI endoscopic finding score 3 / Percentage of subjects with MMDAI endoscopic finding score 0 / Percentage of subjects with MMDAI endoscopic finding score 1 / Percentage of subjects with MMDAI endoscopic finding score 2 / Percentage of subjects with MMDAI endoscopic finding score 3: 2 mg rectal foam twice a day, 20 cases
# Procedure: Placebo-controlled randomized double-blind multicenter collaborative parallel group comparison test
# as §1, §2
# For the trial, an aerosol with fixed dose injection type for rectal injection (rectal foaming agent) is used as a test drug, in which 25 mL (1.35 g) of white creamy foam containing 2 mg of budesonide is released by one injection. As a remission induction therapeutic agent of ulcerative colitis in active phase where the lesion is confined to the rectum and sigmoid colon, the aerosol for rectal injection is approved in Europe at a dosage and dose of budesonide 2 mg once a day (trade name: Budenofalk 2 mg/dose rectal foam, manufactured by Dr. Falk Pharma GmbH).
# The subjects are ulcerative colitis patients in active phase, and are divided into a group administered the test drug twice a day (hereafter, the budesonide-administered group), and a group administered the control drug (hereinafter, the placebo group).
# as §3
# The score by the doctor was used for the initial test, and after an administration period of 6 weeks, whether the prescription was continued for 6 more weeks or not. The score by the central judgment committee was used as the judgement of effectiveness. […] Furthermore, the change of the endoscope finding score from 6th week to 12th week of each subject of placebo group is shown in Table 2, and the change in the endoscope finding score from 6th week to 12th week of each subject of the budesonide-administered group is shown in Table 3.
# [5] = cited from earlier work
# [6] = tested on: serous ACTH (adrenocorticotropic hormone); experiment: Same trial: blood biochemistry check, serous ACTH density; type: in vivo, human
# [7] = 0th week (before prescription), 20 cases analysed
# [8] = 12th week (prescription end), 19 cases analysed
# [9] = After observation, 20 cases analysed
# [10] = 0 week (before administration), 12-week subjects
# [11] = Table 3 total over 6th week scores, of 20
# [12] = Table 3 total over 6th week scores, unmeasured listed separately, of 20
# [13] = change from 6th to 12th week, 2 mg twice a day, of 20
structure (smiles),measurement,setting,value
"CCCC1O[C@@H]2C[C@H]3[C@@H]4CCC5=CC(=O)C=C[C@]5(C)[C@H]4[C@@H](O)C[C@]3(C)[C@]2(C(=O)CO)O1 (mixture of isomers) [Budesonide, (+)-[(RS)-16α,17α-Butylidenedioxy-11β,21-dihydroxy-1,4-pregnadiene-3,20-dione]]","Death, severe adverse events or serious adverse event",[1]; 12 week administration,"no death, severe adverse events or serious adverse event, were observed"
same,Tolerability,"[1]; budesonide 2 mg, rectal administration twice a day for 6 weeks (so in the source), patients of ulcerative colitis",acceptable
same,Manifestation of adverse events as a result of the drug tested,[1]; versus placebo group,couldn't admit between Placebo group
same,Manifested frequency of the adverse event,[1]; versus placebo group,higher than in the placebo group
same,Percentage of the acidophilic leucocyte of leukocyte fractionation,[2]; 4th week to 12th week compared with 0th week and placebo group,decrease
same,Other items of hematology and blood biochemistry checks,[2]; in vivo,no clear fluctuation in other items could be seen
same,Serous cortisol: applicable examples (cases below standard value),[3]; [7],0
same,Serous cortisol: percentage of cases below standard value,[3]; [7],0.0%
same,Serous cortisol: percentage of cases below standard value,"[3]; 0th week (before prescription), 20 cases analysed, listed as budesonide",0%
same,Serous cortisol density,[3]; 6th week and 12th week versus 0th week (before prescription),low compared with the 0th week
same,Serous cortisol: applicable examples (cases below standard value),[3]; [8],11
same,Serous cortisol: percentage of cases below standard value,[3]; [8],57.9%
same,Serous cortisol: applicable examples (cases below standard value),[3]; [9],2
same,Serous cortisol: percentage of cases below standard value,[3]; [9],10.0%
same,Recovery of subjects with both serous cortisol and serous ACTH density below the standard value in the 12th week,[3]; by the after observation,mostly recovered to within the standard value
same,Serous cortisol density after end of administration,[3]; observed for 2-4 weeks after the end of the 12-week administration period,reverting to the value in the 0th week
same,Number of subjects with MMDAI endoscopic finding score 0,[4]; [10],0 subjects
same,Number of subjects with MMDAI endoscopic finding score 1,[4]; [10],3 subjects
same,Number of subjects with MMDAI endoscopic finding score 2,[4]; [10],16 subjects
same,Number of subjects with MMDAI endoscopic finding score 3,[4]; [10],1 subjects
same,Percentage of subjects with MMDAI endoscopic finding score 0,[4]; [10],(0.0) %
same,Percentage of subjects with MMDAI endoscopic finding score 1,[4]; [10],(15.0) %
same,Percentage of subjects with MMDAI endoscopic finding score 2,[4]; [10],(80.0) %
same,Percentage of subjects with MMDAI endoscopic finding score 3,[4]; [10],(5.0) %
same,"Percentage with an endoscope view score of 0 in the 12th week, except for non-measured group","[4]; 6/15 examples, placebo 0% (0/13), administration continued for 6 more weeks",40.0%
same,Number of subjects with MMDAI endoscopic finding score 0,"[4]; 6th week, 12-week subjects",4 subjects
same,Number of subjects with MMDAI endoscopic finding score 1,"[4]; 6th week, 12-week subjects",14 subjects
same,Number of subjects with MMDAI endoscopic finding score 2,"[4]; 6th week, 12-week subjects",2 subjects
same,Number of subjects with MMDAI endoscopic finding score 3,"[4]; 6th week, 12-week subjects",0 subjects
same,Percentage of subjects with MMDAI endoscopic finding score 1,"[4]; 6th week, 12-week subjects",(70.0) %
same,Number of subjects with MMDAI endoscopic finding score 0,[4]; 12th week (Table 1),6 subjects
same,Number of subjects with MMDAI endoscopic finding score 1,[4]; 12th week (Table 1),8 subjects
same,Number of subjects with MMDAI endoscopic finding score 2,[4]; 12th week (Table 1),6 subjects
same,Number of subjects with MMDAI endoscopic finding score 3,[4]; 12th week (Table 1),0 subjects
same,Percentage of subjects with MMDAI endoscopic finding score 0,[4]; 12th week (Table 1),(30.0) %
same,Percentage of subjects with MMDAI endoscopic finding score 1,[4]; 12th week (Table 1),(40.0) %
same,Percentage of subjects with MMDAI endoscopic finding score 2,[4]; 12th week (Table 1),(30.0) %
same,Percentage of subjects with MMDAI endoscopic finding score 3,[4]; 12th week (Table 1),(0.0) %
same,"Number of subjects, 12th week Unmeasured, Total",[4]; [11],5 subjects
same,"Percentage of subjects, 12th week Unmeasured, Total",[4]; [11],(25.0) %
same,"Number of subjects, endoscope finding score 12th week 0, Total",[4]; [12],6 subjects
same,"Number of subjects, endoscope finding score 12th week 1, Total",[4]; [12],7 subjects
same,"Number of subjects, endoscope finding score 12th week 2, Total",[4]; [12],2 subjects
same,"Number of subjects, endoscope finding score 12th week 3, Total",[4]; [12],0 subjects
same,"Percentage of subjects, endoscope finding score 12th week 0, Total",[4]; [12],(30.0) %
same,"Percentage of subjects, endoscope finding score 12th week 1, Total",[4]; [12],(35.0) %
same,"Percentage of subjects, endoscope finding score 12th week 2, Total",[4]; [12],(10.0) %
same,"Percentage of subjects, endoscope finding score 12th week 3, Total",[4]; [12],(0.0) %
same,"Number of subjects, endoscope finding score 6th week 0 / 12th week 0",[4]; [13],0 subjects
same,"Number of subjects, endoscope finding score 6th week 0 / 12th week 1",[4]; [13],1 subjects
same,"Number of subjects, endoscope finding score 6th week 0 / 12th week 2",[4]; [13],0 subjects
same,"Number of subjects, endoscope finding score 6th week 0 / 12th week 3",[4]; [13],0 subjects
same,"Number of subjects, endoscope finding score 6th week 0 / 12th week Unmeasured",[4]; [13],3 subjects
same,"Number of subjects, endoscope finding score 6th week 1 / 12th week 0",[4]; [13],5 subjects
same,"Number of subjects, endoscope finding score 6th week 1 / 12th week 1",[4]; [13],6 subjects
same,"Number of subjects, endoscope finding score 6th week 1 / 12th week 2",[4]; [13],1 subjects
same,"Number of subjects, endoscope finding score 6th week 1 / 12th week 3",[4]; [13],0 subjects
same,"Number of subjects, endoscope finding score 6th week 1 / 12th week Unmeasured",[4]; [13],2 subjects
same,"Number of subjects, endoscope finding score 6th week 2 / 12th week 0",[4]; [13],1 subjects
same,"Number of subjects, endoscope finding score 6th week 2 / 12th week 1",[4]; [13],0 subjects
same,"Number of subjects, endoscope finding score 6th week 2 / 12th week 2",[4]; [13],1 subjects
same,"Number of subjects, endoscope finding score 6th week 2 / 12th week 3",[4]; [13],0 subjects
same,"Number of subjects, endoscope finding score 6th week 2 / 12th week Unmeasured",[4]; [13],0 subjects
same,"Number of subjects, endoscope finding score 6th week 3 / 12th week 0",[4]; [13],0 subjects
same,"Number of subjects, endoscope finding score 6th week 3 / 12th week 1",[4]; [13],0 subjects
same,"Number of subjects, endoscope finding score 6th week 3 / 12th week 2",[4]; [13],0 subjects
same,"Number of subjects, endoscope finding score 6th week 3 / 12th week 3",[4]; [13],0 subjects
same,"Number of subjects, endoscope finding score 6th week 3 / 12th week Unmeasured",[4]; [13],0 subjects
same,"Percentage of subjects, endoscope finding score 6th week 0 / 12th week 0",[4]; [13],0.0%
same,"Percentage of subjects, endoscope finding score 6th week 0 / 12th week 1",[4]; [13],5.0%
same,"Percentage of subjects, endoscope finding score 6th week 0 / 12th week 2",[4]; [13],0.0%
same,"Percentage of subjects, endoscope finding score 6th week 0 / 12th week 3",[4]; [13],0.0%
same,"Percentage of subjects, endoscope finding score 6th week 0 / 12th week Unmeasured",[4]; [13],15.0%
same,"Percentage of subjects, endoscope finding score 6th week 1 / 12th week 1",[4]; [13],(30.0) %
same,"Percentage of subjects, endoscope finding score 6th week 1 / 12th week 3",[4]; [13],(0.0) %
same,"Percentage of subjects, endoscope finding score 6th week 1 / 12th week Unmeasured",[4]; [13],(10.0) %
same,"Percentage of subjects, endoscope finding score 6th week 2 / 12th week 0",[4]; [13],5.0%
same,"Percentage of subjects, endoscope finding score 6th week 2 / 12th week 1",[4]; [13],0.0%
same,"Percentage of subjects, endoscope finding score 6th week 2 / 12th week 2",[4]; [13],5.0%
same,"Percentage of subjects, endoscope finding score 6th week 2 / 12th week 3",[4]; [13],0.0%
same,"Percentage of subjects, endoscope finding score 6th week 2 / 12th week Unmeasured",[4]; [13],0.0%
same,"Percentage of subjects, endoscope finding score 6th week 3 / 12th week 0",[4]; [13],0.0%
same,"Percentage of subjects, endoscope finding score 6th week 3 / 12th week 1",[4]; [13],0.0%
same,"Percentage of subjects, endoscope finding score 6th week 3 / 12th week 2",[4]; [13],0.0%
same,"Percentage of subjects, endoscope finding score 6th week 3 / 12th week 3",[4]; [13],0.0%
same,"Percentage of subjects, endoscope finding score 6th week 3 / 12th week Unmeasured",[4]; [13],0.0%
same,Solubility in water,[5],low solubility in water
same,Serous ACTH: applicable examples (cases below standard value),[6]; [7],3
same,Serous ACTH: percentage of cases below standard value,[6]; [7],15.0%
same,Serous ACTH: applicable examples (cases below standard value),[6]; [8],8
same,Serous ACTH: percentage of cases below standard value,[6]; [8],42.1%
same,Serous ACTH: applicable examples (cases below standard value),[6]; [9],2
same,Serous ACTH: percentage of cases below standard value,[6]; [9],10.0%
